Read-outs that look alike come from different tables or passages of the source.
How the values were obtained:
adrenal cortex [1] = experiment: Induced protection of adrenal against 7,12-DMBA; format: in vivo, rat; settings: for Protection of adrenal after repeated doses: 15 mg fed daily for 5 days before 7,12-DMBA
[2] = system: menadione reductase (EC 1.6.5.2); experiment: Induction of menadione reductase in tissues; format: in vivo, rat; settings: for Induction of menadione reductase in liver: single feeding, 24 hours
adrenal cortex [3] = settings: cited from earlier work; for Protection of adrenal against 7,12-DMBA: single feeding
adrenal cortex [4] = experiment: Adrenal damage; settings: for Adrenal damage: feeding; for Pathological findings in adrenals: without hydrocarbons
[5] = system: deoxyribonucleic acid of adrenal; format: in vivo, rat; settings: Table VII; ethionine 25 mg i.p. at -24 hrs alone
adrenal cortex [6] = settings: far larger doses than of 7,12-DMBA required; cited from earlier work
[7] = polycyclic aromatic hydrocarbons

In the case of `Cc1c2ccccc2cc2c1cc(F)c1ccccc12` [5-Fluoro-7-methyl BaA], the Adrenals with hemorrhage (adrenal cortex [1]; Table III, dose 1 mg fed once day -1, 7,12-DMBA 5 mg i.v. day 0, adrenals day 3) is reported as 0/6.

With `CCC1(CC)C(=O)NC(=O)NC1=O` [barbital] the “Protection of adrenal after repeated doses” value (adrenal cortex [1]) was “did not induce pro- tection”.

In the case of `c1ccc2c(c1)ccc1c3ccccc3ccc21` [Chrysene], the “Induction of menadione reductase in liver” value [2] is reported as “induced a considerable in- crease”.

In the case of `Nc1ccc2ccccc2c1` [2-naphthylamine], the “Protection of adrenal against 7,12-DMBA” value (adrenal cortex [3]; aromatic amines) is given as “protection of this sort was afforded”.

For `Cc1cccc2ccc3cc4ccccc4c(C)c3c12` [1,12-DMBA], the Adrenal damage (adrenal cortex [4]; 30 mg) was “adrenal damage did not occur”.

For `c1ccc2c(c1)ccc1ccccc12` [phenanthrene], the “Protection of adrenal against 7,12-DMBA” value (adrenal cortex [3]; [7]) is listed as “protection of this sort was afforded”.

With `CCSCC[C@H](N)C(=O)O` [ethionine] the Adrenals at necropsy (adrenal cortex [1]; 3 doses of ethionine 25 mg at +1 minute, +4 hours, +8 hours after 3-MC 10 mg, 7,12-DMBA 5 mg) was “eliminated the protective effect of 3-MC”, the Adrenals at necropsy (adrenal cortex [1]; ethionine 25 mg 4 or 8 hours after 3-MC 2 mg, 7,12-DMBA 5 mg 24 hours later) was “yel- low adrenals” and the “Effect on 7,12-DMBA-produced adrenal apoplexy” value (adrenal cortex [1]; ethionine 25 mg or 50 mg 0.5 hours before 7,12-DMBA 5 mg, no protector) was “adrenal apoplexy was found at necropsy in all of the rats”. The Adrenals at necropsy (adrenal cortex [1]; single doses of ethionine 25 mg or 50 mg, 1 minute to 1 hour after 3-MC 10 mg, 7,12-DMBA 5 mg) was “yellow adrenals”, the “Elevation of menadione reductase in liver at 12 hours vs rats without ethionine” value ([2]; 3-MC 2.5 mg i.v. plus ethionine 25 mg i.p.) was “significantly lower” and the “Time elevation of menadione reductase in liver first detected” value ([2]; 3-MC 2.5 mg i.v. plus ethionine 25 mg i.p. just after, Fig. 4) was 8 h. The “Tritium content of adrenal” value [5] was 0.122 ~clgm, the “Tritium content of adrenal, per cent of controls” value [5] was 92 per cent and the “Pathological findings in adrenals” value (adrenal cortex [4]; injection of 25 to 75 mg) was “No pathological findings”.

In the case of `c1ccc2cc3c(ccc4ccccc43)cc2c1` [Benz[a]anthracene, benz[a]anthracene], the “Protection of adrenal against 7,12-DMBA” value (adrenal cortex [3]; [7]) is given as “protection of this sort was afforded”.

For `Nc1ccc2c(c1)Cc1ccccc1-2` [2-aminofluorene], the “Protection of adrenal against 7,12-DMBA” value (adrenal cortex [3]; aromatic amines) is listed as “protection of this sort was afforded”.

For `Clc1ccc(C(c2ccccc2Cl)C(Cl)Cl)cc1` (stereo not drawn) [o,p'-DDD, 2,2-bis(2-chlorophenyl,4-chlorophenyl)-l, 1-dichloroethane], the “Adrenal necrosis (character)” value (adrenal cortex [6]) is given as “focal and patchy”.

In the case of `c1ccc2c(c1)cc1ccc3cccc4ccc2c1c34` [Benzo[a]pyrene, benzo[a]pyrene], the “Induction of menadione reductase in liver” value [2] is listed as “induced synthesis of the enzyme” and the “Protection of adrenal against 7,12-DMBA” value (adrenal cortex [3]; [7]) is listed as “protection of this sort was afforded”.

In the case of `c1cc2ccc3cccc4ccc(c1)c2c34` [Pyrene], the “Induction of menadione reductase in liver” value [2] is reported as “failed to induce this enzyme”.

In the case of `Cc1cccc2cc3c(cc12)c(C)cc1ccccc13` [6,8-Dimethylbenz[a]anthracene], the Adrenal damage (adrenal cortex [4]; 30 mg) is reported as “adrenal damage did not occur”.

For `CC(C)(O)C(Cl)(Cl)Cl` [chloretone, 1,1,1-tricbloro-2-methyl-2-propanol], the “Rats with protection of adrenals” value (adrenal cortex [1]; 15 mg fed daily for 5 days, group of 20 rats) was 7.

In the case of `CC12OOC(C)(c3ccccc31)c1c2ccc2ccccc12` (stereo not drawn) [transannular peroxide of 7,12-DMBA], the Adrenal protection (adrenal cortex [1]; feeding 10 mg) is reported as “complete adre- nal protection”, the “Animals with protection of adrenals” value (adrenal cortex [1]; single feeding of 2 mg, group of 5 rats) is reported as 3 and the Adrenal damage (adrenal cortex [4]; 50 mg) is reported as “did not cause injury to the adrenals”.

For `Nc1cc2c3ccccc3ccc2c2ccccc12` [6-Aminochrysene], the “Protection of adrenal against 7,12-DMBA” value (adrenal cortex [3]; aromatic amines) is given as “protection of this sort was afforded”.

For `CSCC[C@H](N)C(=O)O` [methionine], the “Influence on aromatic protection against 7,12-DMBA” value (adrenal cortex [1]; methionine 50 mg as sole amino acid 1 hour before or 1 hour after 3-MC 2 mg) was “no influence on aromatic protection” and the “Pathological findings in adrenals” value (adrenal cortex [4]; injection of 50 mg) was “No pathological findings”.

For `c1ccc2cc3ccccc3cc2c1` [anthracene], the “Protection of adrenal against 7,12-DMBA” value (adrenal cortex [3]; [7]) is listed as “protection of this sort was afforded”.

For `Cc1ccc2cc3c(ccc4cc(C)ccc43)cc2c1` [3,9-Dimethylbenz[alanthracene], the Adrenal damage (adrenal cortex [4]; 30 mg) was “adrenal damage did not occur”.

In the case of `CC(C)(C(=O)c1cccnc1)c1cccnc1` [2-methyl-I, 2-b/s(3-pyr-idyl)-1-propanone], the “Prevention of adrenal damage from 7,12-DMBA” value (adrenal cortex [3]; preliminary treatment of rats) is listed as “prevented adrenal damage”.

With `CCC1(C2=CCCCC2)C(=O)NC(=O)NC1=O` [cyclobarbital, 5-(1-cycloohexanyl)-5-ethylbarbituric acid] the “Protection of adrenal after repeated doses” value (adrenal cortex [1]) was “did not induce pro- tection”.
